Results: patent publication US6914066B2, “1,2-annelated quinoline derivatives” (Janssen Pharmaceutica N.V., priority 1998, dated 2005)
Counter-ions that a name gives are not always drawn.

Compound	melting point
CN1c2nnnn2-c2ccc(C(O)(c3ccc(Cl)cc3)c3cncn3C)cc2C1c1cccc(Cl)c1 (racemic) [Comp 33, (±)-5-(3-chlorophenyl)-α-(4-chlorophenyl)-4,5-dihydro-4methyl-α-(1-methyl-1H-imidazol-5-yl)tetrazolo[1,5-a]quinazoline-7-methanol]	235 °C
CNc1ncc(C(c2ccc(Cl)cc2)c2ccc3c(c2)c(-c2cccc(Cl)c2)cc2nnnn23)n1C (centres unmarked) [Comp 49]	206 °C
Cn1cncc1C(O)(c1ccc(Cl)cc1)c1ccc2c(c1)C(c1cccc(Cl)c1)Nc1nnnn1-2 (racemic) [Comp 30, (±)5-(3-chlorophenyl)-α-(4-chlorophenyl)4,5-dihydro-α-(1-methyl-1H-imidazol-5-yl)tetrazolo[1,5-a]quinazoline-7-methanol]	212 °C
Fc1ccc(C(c2ccc3c(c2)c(-c2ccccc2)cc2nccn23)n2ccnc2)cc1 (racemic) (hydrate or solvate) [Comp 3, (±)-7-[(4fluorophenyl)(1H-imidazol-1-yl)methyl]-5-phenylimidazo[1,2-a]quinoline ethanedioate(2:3).hemihydrate]	204.3 °C
O=c1[nH]nc2cc(-c3ccccc3)c3cc(C(c4ccc(Cl)cc4)n4ccnc4)ccc3n12 (racemic) (hydrate or solvate) [Comp 7, (±)-7-[(4-chlorophenyl)-1H-imidazol-1-ylmethyl]-5-phenyl[1,2,4]triazolo[4,3-a]quinolin-1(2H)-one ethanedioate(1:1).hemihydrate]	198.3 °C
Cn1cncc1C(c1ccc(Cl)cc1)c1ccc2c(c1)c(-c1cccc(Cl)c1)cc1nnnn12 (centres unmarked) [Comp 94]	166 °C
Cn1cncc1C(N)(c1ccc(Cl)cc1)c1ccc2c(c1)c(-c1cccc(Cl)c1)c(C(N)=O)c1nnnn12 (centres unmarked) [Comp 77]	> 250 °C
Cn1cncc1C(O)(c1ccc(Cl)cc1)c1ccc2c(c1)c(-c1cccc(Cl)c1)c(CO)c1nnnn12 (centres unmarked) (as salt: hydrochloride) [Comp 82]	> 280 °C
Cn1cncc1C(O)(c1ccc(Cl)cc1)c1ccc2c(c1)c(-c1cccc(Cl)c1)c(C(=O)O)c1nnnn12 (centres unmarked) (as salt: hydrochloride) [Comp 53]	> 260 °C
Cn1cncc1C(O)(c1ccc(Cl)cc1)c1ccc2c(c1)c(-c1cccc(Cl)c1)c(C(N)=O)c1nnnn12 (centres unmarked) [Comp 80]	> 250 °C

Now from value to molecule:

melting point	Compound
167 °C	CNC(c1ccc(Cl)cc1)(c1ccc2c(c1)c(-c1cccc(Cl)c1)cc1nnnn12)c1cncn1C (centres unmarked) [Comp 48]
150 °C	Cn1cncc1C(OCCO)(c1ccc(Cl)cc1)c1ccc2c(c1)c(-c1cccc(Cl)c1)cc1nnnn12 (centres unmarked) (hydrate or solvate) [Comp 41]
222 °C	Cn1cncc1C(O)(c1ccc(Cl)cc1)c1ccc2c(c1)c(-c1cccc(Cl)c1)cc1cnnn12 (racemic) [Comp 26, (±)-5-(3-chlorophenyl)-α-(4-chlorophenyl)-α-(1-methyl-1H-imidazol-5-yl)-[1,2,3]triazolo[1,5-a]quinoline-7-methanol]
172 °C	Cn1cncc1C(N)(c1ccc(Cl)cc1)c1ccc2c(c1)c(-c1cccc(Cl)c1)cc1nnnn12 (centres unmarked) [Comp 27]
159 °C	Cn1cncc1C(N)(c1ccc(Cl)cc1)c1ccc2c(c1)c(-c1cccc(Cl)c1)nc1nnnn12 (racemic) [Comp 32, (±)-5-(3-chlorophenyl)-α-(4-chlorophenyl)-α-(1-methyl-1H-imidazol-5-yl)tetrazolo[1,5-a]quinazoline-7-methanamine]
143 °C	CCOC(=O)c1cn2c(cc(-c3cccc(Cl)c3)c3cc(C(O)(c4ccc(Cl)cc4)c4cncn4C)ccc32)n1 (centres unmarked) [Comp 95]
191 °C	Cn1cncc1C(NO)(c1ccc(Cl)cc1)c1ccc2c(c1)c(-c1cccc(Cl)c1)cc1cnnn12 (centres unmarked) [Comp 98]
180 °C	Cn1cncc1C(N)(c1ccc(Cl)cc1)c1ccc2c(c1)c(-c1cccc(Cl)c1)cc1nnnn12 (centres unmarked) [Comp 28]
139 °C	Cn1cncc1C(O)(c1ccc(Cl)cc1)c1ccc2c(c1)c(-c1cccc(Cl)c1)nc1nnnn12 (racemic) [Comp 29, (±)-5-(3-chlorophenyl)-α-(4-chlorophenyl)-α-(1-methyl-1H-imidazol-5-yl)tetrazolo[1,5-a]quinazoline-7-methanol]
224 °C	CNCC(=O)NC(c1ccc(Cl)cc1)(c1ccc2c(c1)c(-c1cccc(Cl)c1)cc1nnnn12)c1cncn1C (centres unmarked) [Comp 121]
